Where a name gives a salt, the structure may show the parent alone. Read-outs that look alike come from different tables or passages of the source.
Columns and labels:
Format in all cases: biochemical
recombinant PRL-2 = target: T1, recombinant PRL-2 (Homo sapiens, UniProt Q12974); experiment: In vitro phosphatase assay (DiFMUP hydrolysis), PRL-2;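 further: PRL-2 activity read as DiFMUP hydrolysis after 20 min at room temperature with drug, enzyme first pre-reduced at 4 °C for 20 min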
T1 construct: 6xHis (N, cleaved yes); made in house; host or cells: E. coli One Shot BL21 Star
T1 sequence (Q12974 1-167): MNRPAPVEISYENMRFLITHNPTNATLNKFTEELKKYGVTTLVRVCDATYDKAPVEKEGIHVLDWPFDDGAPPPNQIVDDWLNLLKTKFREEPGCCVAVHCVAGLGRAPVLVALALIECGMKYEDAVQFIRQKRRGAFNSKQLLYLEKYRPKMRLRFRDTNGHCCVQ

recombinant PRL-3 = target: T2, recombinant PRL-3 (Homo sapiens, UniProt O75365); experiment: In vitro phosphatase assay (DiFMUP hydrolysis), PRL-3; further: test concentration or dose not given here
T2 construct: 6xHis (N, cleaved yes); made in house; host or cells: E. coli One Shot BL21 Star
T2 sequence (O75365 whole entry): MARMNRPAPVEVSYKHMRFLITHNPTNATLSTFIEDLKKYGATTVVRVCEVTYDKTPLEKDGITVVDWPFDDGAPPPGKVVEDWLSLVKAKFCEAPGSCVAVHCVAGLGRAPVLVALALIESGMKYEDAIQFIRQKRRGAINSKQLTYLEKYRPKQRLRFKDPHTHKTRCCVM

recombinant PRL-1 = target: T3, recombinant PRL-1 (Homo sapiens, UniProt Q93096); experiment: In vitro phosphatase assay (DiFMUP hydrolysis), PRL-1; further: test concentration or dose not given here
T3 construct: 6xHis (N, cleaved yes); made in house; host or cells: E. coli One Shot BL21 Star
T3 sequence (Q93096 1-173): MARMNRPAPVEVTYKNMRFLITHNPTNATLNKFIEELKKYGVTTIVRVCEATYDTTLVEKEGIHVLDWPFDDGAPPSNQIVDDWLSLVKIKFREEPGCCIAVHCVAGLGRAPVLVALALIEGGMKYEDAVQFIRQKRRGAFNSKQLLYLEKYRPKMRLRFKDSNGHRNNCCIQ

[1] = FDA-approved drug screen, compared to DMSO
[2] = FDA-approved drug screen, activity compared to DMSO

SMILES | % Phosphatase Activity (compared to DMSO) PRL-2 (recombinant PRL-2; [1]) [%] | % Phosphatase Activity (compared to DMSO) PRL-3 (recombinant PRL-3; [1]) [%] | % Phosphatase Activity (compared to DMSO) PRL-1 (recombinant PRL-1; [1]) [%] | further results
Cc1[nH]c2ccccc2c1CCNCc1ccc(/C=C/C(=O)NO)cc1 [Panobinostat (LBH589)] | 102 | 83 | 95 | 
O=C(O)c1cccnc1 [Nicotinic Acid] |  |  |  | % Phosphatase Activity (compared to DMSO) PRL-2 (recombinant PRL-2): 94%; % Phosphatase Activity (compared to DMSO) PRL-3 (recombinant PRL-3): 91%; % Phosphatase Activity (compared to DMSO) PRL-1 (recombinant PRL-1): 95%
NC(=O)c1ncn([C@@H]2O[C@H](CO)[C@@H](O)[C@H]2O)n1 [Ribavirin] | 108 | 83 | 105 | 
NC(=O)C(c1ccccc1)(c1ccccc1)[C@@H]1CCN(CCc2ccc3c(c2)CCO3)C1 [Darifenacin HBr] |  |  |  | % Phosphatase Activity (compared to DMSO) PRL-2 (recombinant PRL-2): 102%; % Phosphatase Activity (compared to DMSO) PRL-3 (recombinant PRL-3): 87%; % Phosphatase Activity (compared to DMSO) PRL-1 (recombinant PRL-1): 100%
Nc1cccc2c1CN(C1CCC(=O)NC1=O)C2=O (stereo not drawn) [Lenalidomide (CC-5013)] | 95 | 84 | 87 | 
CCC1(c2ccc(N)cc2)CCC(=O)NC1=O (stereo not drawn) [Aminoglutethimide] | 107 | 77 | 94 | 
CC(=O)OCC(=O)NCCCOc1cccc(CN2CCCCC2)c1 [Roxatidine Acetate HCl] | 111 | 95 | 96 | 
COc1nc(N)nc2c1ncn2[C@@H]1O[C@H](CO)[C@@H](O)[C@@H]1O [Nelarabine] |  |  |  | % Phosphatase Activity (compared to DMSO) PRL-2 (recombinant PRL-2): 108%; % Phosphatase Activity (compared to DMSO) PRL-3 (recombinant PRL-3): 79%; % Phosphatase Activity (compared to DMSO) PRL-1 (recombinant PRL-1): 93%
O=C1CCC(N2C(=O)c3ccccc3C2=O)C(=O)N1 (stereo not drawn) [Thalidomide] |  |  |  | % Phosphatase Activity (compared to DMSO) PRL-2 (recombinant PRL-2; [2]): 91%; % Phosphatase Activity (compared to DMSO) PRL-3 (recombinant PRL-3; [2]): 79%; % Phosphatase Activity (compared to DMSO) PRL-1 (recombinant PRL-1; [2]): 97%
Nc1ccc2cc3ccc(N)cc3nc2c1 [Proflavine Hemisulfate] | 61 | 100 | 81 | 
C#C[C@]1(O)CC[C@H]2[C@@H]3CCC4=CC(=O)CC[C@@H]4[C@H]3C(=C)C[C@@]21CC [Etonogestrel] | 85 | 80 | 90 | 
CCOC(=O)CCC(=O)O[C@H]1[C@H](O[C@@H]2[C@@H](C)[C@H](O[C@H]3C[C@@](C)(OC)[C@@H](O)[C@H](C)O3)[C@@H](C)C(=O)O[C@H](CC)[C@@](C)(O)[C@H](O)[C@@H](C)C(=O)[C@H](C)C[C@@]2(C)O)O[C@H](C)C[C@@H]1N(C)C [Erythromycin Ethylsuccinate] | 82 | 71 | 85 | 
COCC[n+]1c2c(n(Cc3cnccn3)c1C)C(=O)c1ccccc1C2=O.[Br-] [YM155 (Sepantronium Bromide)] |  |  |  | % Phosphatase Activity (compared to DMSO) PRL-2 (recombinant PRL-2; [2]): 13%; % Phosphatase Activity (compared to DMSO) PRL-3 (recombinant PRL-3; [2]): 5%; % Phosphatase Activity (compared to DMSO) PRL-1 (recombinant PRL-1; [2]): 11%
CCOC(=O)N1CCC(=C2c3ccc(Cl)cc3CCc3cccnc32)CC1 [Loratadine] | 90 | 65 | 89 | 
Cc1cn([C@H]2O[C@@H](CO)[C@H](O)[C@H]2F)c(=O)[nH]c1=O [Clevudine] | 117 | 89 | 103 | 
CC1CC(OC(=O)C(O)c2ccccc2)CC(C)(C)C1 (stereo not drawn) [Cyclandelate] | 84 | 74 | 82 | 
O=C(NC1CCN(CCCCC2(C(=O)NCC(F)(F)F)c3ccccc3-c3ccccc32)CC1)c1ccccc1-c1ccc(C(F)(F)F)cc1 [Lomitapide Mesylate] | 119 | 125 | 129 | 
Nc1nc(=O)n([C@@H]2CS[C@H](CO)O2)cc1F [Emtricitabine] |  |  |  | % Phosphatase Activity (compared to DMSO) PRL-2 (recombinant PRL-2): 97%; % Phosphatase Activity (compared to DMSO) PRL-3 (recombinant PRL-3): 75%; % Phosphatase Activity (compared to DMSO) PRL-1 (recombinant PRL-1): 104%
Cl.NCCS [Cysteamine HCl] | 79 | 70 | 91 | 
C=CC1=C(C(=O)O)N2C(=O)[C@@H](NC(=O)/C(=N\OCC(=O)O)c3csc(N)n3)[C@H]2SC1 [Cefixime] | 90 | 90 | 89 | 

SMILES | % Phosphatase Activity (compared to DMSO) PRL-2 (recombinant PRL-2; [1]) [%] | % Phosphatase Activity (compared to DMSO) PRL-3 (recombinant PRL-3; [1]) [%] | % Phosphatase Activity (compared to DMSO) PRL-1 (recombinant PRL-1; [1]) [%] | further results
Nc1nc(N)nc(NC2CC2)n1 [Cyromazine] | 101 | 78 | 90 | 
C=C1CC[C@H](O)C/C1=C/C=C1\CCC[C@]2(C)[C@@H]([C@H](C)/C=C/[C@H](C)C(C)C)CC[C@@H]12 [Vitamin D2] |  |  |  | % Phosphatase Activity (compared to DMSO) PRL-2 (recombinant PRL-2; [2]): 99%; % Phosphatase Activity (compared to DMSO) PRL-3 (recombinant PRL-3; [2]): 84%; % Phosphatase Activity (compared to DMSO) PRL-1 (recombinant PRL-1; [2]): 95%
O=C([O-])Cc1ccccc1Nc1c(Cl)cccc1Cl.[K+] [Diclofenac Potassium] | 132 | 99 | 115 | 
CC(=O)NC1CCSC1=O (stereo not drawn) [Citiolone] | 106 | 93 | 114 | 
CCC1(C)CC(=O)NC1=O (stereo not drawn) [Ethosuximide] | 104 | 79 | 95 | 
Cc1ccc(-n2nc(C(C)(C)C)cc2NC(=O)NCc2cc(F)ccc2Oc2ccc3c(cnn3CCO)c2)cc1 [Pexmetinib (ARRY-614)] | 103 | 117 | 106 | 
Cc1cc(NS(=O)(=O)c2ccc(N)cc2)no1 [Sulfamethoxazole] |  |  |  | % Phosphatase Activity (compared to DMSO) PRL-2 (recombinant PRL-2): 96%; % Phosphatase Activity (compared to DMSO) PRL-3 (recombinant PRL-3): 86%; % Phosphatase Activity (compared to DMSO) PRL-1 (recombinant PRL-1): 91%
O=C(O)Cc1ccccc1Nc1c(Cl)cccc1Cl [Diclofenac Diethylamine] | 140 | 97 | 119 | 
CCCNC(C)C(=O)Nc1ccccc1C (stereo not drawn) [Prilocaine] | 107 | 78 | 97 | 
CC(CN(C)C)CN1c2ccccc2CCc2ccccc21 (stereo not drawn) [Trimipramine Maleate] |  |  |  | % Phosphatase Activity (compared to DMSO) PRL-2 (recombinant PRL-2; [2]): 97%; % Phosphatase Activity (compared to DMSO) PRL-3 (recombinant PRL-3; [2]): 90%; % Phosphatase Activity (compared to DMSO) PRL-1 (recombinant PRL-1; [2]): 94%
NS(=O)(=O)Cc1noc2ccccc12 [Zonisamide] |  |  |  | % Phosphatase Activity (compared to DMSO) PRL-2 (recombinant PRL-2; [2]): 89%; % Phosphatase Activity (compared to DMSO) PRL-3 (recombinant PRL-3; [2]): 78%; % Phosphatase Activity (compared to DMSO) PRL-1 (recombinant PRL-1; [2]): 104%
CN(C)c1cc(NC(=O)CNC(C)(C)C)c(O)c2c1C[C@H]1C[C@H]3[C@H](N(C)C)C(O)=C(C(N)=O)C(=O)[C@@]3(O)C(O)=C1C2=O [Tigecycline] |  |  |  | % Phosphatase Activity (compared to DMSO) PRL-2 (recombinant PRL-2; [2]): 45%; % Phosphatase Activity (compared to DMSO) PRL-3 (recombinant PRL-3; [2]): 24%; % Phosphatase Activity (compared to DMSO) PRL-1 (recombinant PRL-1; [2]): 36%
CC(=O)O[C@]1(C(C)=O)CC[C@H]2[C@@H]3C[C@H](C)C4=CC(=O)CC[C@]4(C)[C@H]3CC[C@@]21C [Medroxyprogesterone acetate] | 89 | 85 | 89 | 
CO[C@H]1C(=O)[C@]2(C)[C@@H](OC)C[C@H]3OC[C@@]3(OC(C)=O)[C@H]2[C@H](OC(=O)c2ccccc2)[C@]2(O)C[C@H](OC(=O)[C@H](O)[C@@H](NC(=O)OC(C)(C)C)c3ccccc3)C(C)=C1C2(C)C [Cabazitaxel] | 107 | 89 | 88 | 
C[C@]1(O)C[C@@H](c2nc(-c3ccc4ccc(-c5ccccc5)nc4c3)c3c(N)nccn32)C1 [OSI-906 (Linsitinib)] | 96 | 77 | 79 | 
CCC(=O)O[C@]1(C(=O)SCF)[C@H](C)C[C@H]2[C@@H]3C[C@H](F)C4=CC(=O)C=C[C@]4(C)[C@@]3(F)[C@@H](O)C[C@@]21C [Fluticasone propionate] | 92 | 90 | 103 | 
Oc1c(Cl)cc(Cl)c2cccnc12 [Chloroxine] | 111 | 86 | 90 | 
COC(=O)Nc1nc2ccc(C(=O)c3ccccc3)cc2[nH]1 [Mebendazole] | 83 | 79 | 90 | 
CN(C)/N=N/c1[nH]cnc1C(N)=O [Dacarbazine] | 98 | 76 | 92 | 

Reference: publication PMC8119466, “A screen of FDA-approved drugs identifies inhibitors of protein tyrosine phosphatase 4A3 (PTP4A3 or PRL-3)” (Scientific Reports, 2021)
